Test results reported in the NIST ThermoML archive (doi:10.1021/je200305n).
± gives the expanded uncertainty stated by the source.

Conditions: Liquid

Row | SMILES | vapor or sublimation pressure (337.42 K) | vapor or sublimation pressure (329 K)
1 | CO [methanol] | 100 ± 1.3 kPa | –
2 | CC(C)=O [acetone] | – | 100 ± 1.3 kPa
